Molecular target: T1, ΔF508-CFTR (Homo sapiens, UniProt P13569, DEL508-508)
T1 construct: host or cells: CFBE41o-, doxycycline-inducible
Assay: CFTR cell surface levels using HRP-tagged ΔF508-CFTR expressing CFBE cells, in the presence of a co-corrector
Assay type: cell-based
Details: HRP-tagged ΔF508-CFTR expressing CFBE cells, in the presence of 3 μM co-corrector; for EC50: read-out: EC50
Text: Measuring CFTR Cell Surface Levels Using HRP-Tagged AF508-CFTR Expressing CFBE Cells
The HRP-tagged AF508-CFTR cell assay measures the expression of CFTR-ΔF508 at the plasma membrane. CFTR-ΔF508 has a folding defect leading to absence of protein at the plasma membrane. This assay is used to evaluate the capacity of compounds to increase the expression of CFTR-ΔF508 at the plasma membrane. The CFTR-ΔF508 is tagged with HRP (horse radish peroxidase enzyme) within the ECL4 (Extracellular loop 4) of CFTR (Phuan, P.-W. et al. Synergy-based small-molecule screen using a human lung epithelial cell line yields AF508-CFTR correctors that augment VX-809 maximal efficacy. Mol. Pharmacol. 86, 42-51 (2014)). When HRP-tagged AF508-CFTR is present at the plasma membrane, the HRP enzyme activity can be measured. The amount of CFTR-ΔF508 that can be rescued to the plasma membrane is correlated with the amount of functional enzyme that can be measured.
There are several ways to measure the capacity of compounds to rescue CFTR-ΔF508 to the plasma membrane; either compounds are evaluated on their own and the impact on plasma membrane levels is measured or compounds are evaluated in combination with a co-corrector, i.e. a compound that rescues CFTR-ΔF508 to the plasma membrane but rescue can be enhanced by addition of compounds due to a complementary mode of action.
Activity of Compounds in Combination with Co-Corrector:
For this purpose doxycycline-inducible AF508-CFTR-HRP expressing CFBE4lo-cells (obtained from Gergely Lukacs, McGill University) were maintained in MEM (Minimum Essential Medium, Gibco; 31095) supplemented with 10% fetal bovine serum (Hyclone; SV30160.03) under puromycin (3 μg/mL) and G418 selection (0.2 mg/mL). For compound testing, cells were seeded at 4000 cells/well in white 384-well plates (Greiner; 781080) in 50 μL of medium containing 0.5 μg/mL doxycycline and incubated for 68 hours at 37° C., 5% CO2. On day four, 10 μL of test compounds diluted in PBS (phosphate buffered saline) were added to the plates at a final DMSO concentration of 0.1%. In order to measure compound synergy with a co-corrector, 3 μM co-corrector (3-[(2R,4R)-4-({[1-(2,2-difluoro-1,3-benzodioxol-5-yl)cyclopropyl]carbonyl}amino)-7-methoxy-3,4-dihydro-2H-chromen-2-yl]benzoic acid) was added along with test compounds. All compound plates contained negative controls (DMSO) and positive controls (3 μM co-corrector). Cell plates were incubated at 33° C., 5% CO2 for 20 hours. On day five, the cells were washed five times with phosphate-buffered saline, and HRP activity was assayed by the addition of 50 μL/well of HRP substrate (SuperSignal™ West Pico Chemiluminescent Substrate, Thermo Scientific; 34080). After incubation for 15 minutes in the dark, the chemiluminescence was measured using a plate reader (EnVision®, Perkin Elmer). Raw data were normalized to percentage activity values using the equation: 100×(Sample−Negative control)/(Positive control−Negative Control).

T1 sequence (P13569 with tags, fused parts or gaps DEL508-508): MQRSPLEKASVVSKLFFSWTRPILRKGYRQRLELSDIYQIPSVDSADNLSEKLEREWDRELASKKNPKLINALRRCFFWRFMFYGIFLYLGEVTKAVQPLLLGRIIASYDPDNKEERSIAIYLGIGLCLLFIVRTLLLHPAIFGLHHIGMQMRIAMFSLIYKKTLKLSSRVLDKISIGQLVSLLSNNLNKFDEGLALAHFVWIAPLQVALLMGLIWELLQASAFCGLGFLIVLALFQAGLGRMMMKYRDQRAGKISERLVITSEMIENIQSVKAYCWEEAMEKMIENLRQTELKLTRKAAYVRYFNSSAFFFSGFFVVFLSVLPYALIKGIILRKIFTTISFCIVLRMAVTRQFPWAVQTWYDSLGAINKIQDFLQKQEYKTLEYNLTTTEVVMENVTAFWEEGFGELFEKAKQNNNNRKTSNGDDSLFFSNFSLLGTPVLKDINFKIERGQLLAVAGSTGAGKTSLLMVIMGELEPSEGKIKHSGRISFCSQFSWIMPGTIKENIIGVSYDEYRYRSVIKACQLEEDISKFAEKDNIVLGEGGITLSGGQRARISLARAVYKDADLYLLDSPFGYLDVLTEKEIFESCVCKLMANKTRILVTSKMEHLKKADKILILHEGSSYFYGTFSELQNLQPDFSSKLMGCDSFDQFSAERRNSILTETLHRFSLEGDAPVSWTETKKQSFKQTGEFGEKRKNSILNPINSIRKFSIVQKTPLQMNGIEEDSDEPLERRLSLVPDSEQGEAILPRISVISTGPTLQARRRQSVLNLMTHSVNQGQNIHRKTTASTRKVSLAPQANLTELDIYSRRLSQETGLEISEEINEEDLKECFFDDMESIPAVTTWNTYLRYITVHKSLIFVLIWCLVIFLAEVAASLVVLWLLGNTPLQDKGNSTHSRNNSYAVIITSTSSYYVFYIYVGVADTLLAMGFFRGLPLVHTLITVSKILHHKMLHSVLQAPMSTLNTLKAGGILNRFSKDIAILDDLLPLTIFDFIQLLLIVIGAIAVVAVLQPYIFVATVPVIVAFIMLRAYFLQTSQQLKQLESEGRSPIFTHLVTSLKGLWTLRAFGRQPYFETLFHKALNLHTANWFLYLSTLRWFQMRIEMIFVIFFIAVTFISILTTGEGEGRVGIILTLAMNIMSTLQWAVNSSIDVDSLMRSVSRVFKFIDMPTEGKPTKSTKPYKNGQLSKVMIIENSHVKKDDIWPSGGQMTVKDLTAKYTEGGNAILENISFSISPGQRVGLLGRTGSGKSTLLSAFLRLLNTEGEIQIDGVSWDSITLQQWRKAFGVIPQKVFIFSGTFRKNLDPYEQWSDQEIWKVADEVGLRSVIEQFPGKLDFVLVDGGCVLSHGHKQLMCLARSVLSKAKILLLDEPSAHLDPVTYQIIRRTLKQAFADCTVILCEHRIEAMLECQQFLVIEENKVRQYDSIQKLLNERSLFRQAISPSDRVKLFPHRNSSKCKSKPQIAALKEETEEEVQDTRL

Row | SMILES | % Activation [%] | EC50 [µM]
1 | CCCN1CCN(c2cc(C(=O)O)nc3c2c(C2CCC2)nn3-c2ccccc2)CC1 [compound 707, 3-cyclobutyl-1-phenyl-4-(4-propylpiperazin-1-yl)-1H-pyrazolo[3,4-b]pyridine-6-carboxylic acid] | 326.3 | 0.341
2 | CN(C)C(=O)N1CCN(c2cc(C(=O)O)nc3c2c(C2CCC2)nn3-c2ccccc2)CC1 [compound 708, 3-cyclobutyl-4-[4-(dimethylcarbamoyl)piperazin-1-yl]-1-phenyl-1H-pyrazolo[3,4-b]pyridine-6-carboxylic acid] | 314.8 | 0.147
3 | O=C(O)c1cc(N2CC(N3CCOCC3)C2)c2c(C3CCC3)nn(-c3ccccc3)c2n1 [compound 709, 3-cyclobutyl-4-[3-(morpholin-4-yl)azetidin-1-yl]-1-phenyl-1H-pyrazolo[3,4-b]pyridine-6-carboxylic acid] | 223.9 | 1.67
4 | CCCCN1CCCN(c2cc(C(=O)O)nc3c2c(C2CCC2)nn3-c2ccccc2)CC1 [compound 710, 4-(4-butyl-1,4-diazepan-1-yl)-3-cyclobutyl-1-phenyl-1H-pyrazolo[3,4-b]pyridine-6-carboxylic acid] | 282.6 | 1.35
5 | O=C(O)c1cc(N2CCC(N3CCCC(C(=O)N4CCOCC4)C3)CC2)c2c(C3CCC3)nn(-c3ccccc3)c2n1 (stereo not shown) [compound 711, 3-cyclobutyl-4-[3-(morpholine-4-carbonyl)[1,4′-bipiperidin]-1′-yl]-1-phenyl-1H-pyrazolo[3,4-b]pyridine-6-carboxylic acid] | 248.8 | 1.11
6 | CCCN1CCCN(c2cc(C(=O)O)nc3c2c(C2CCC2)nn3-c2ccccc2)CC1 [compound 712, 3-cyclobutyl-1-phenyl-4-(4-propyl-1,4-diazepan-1-yl)-1H-pyrazolo[3,4-b]pyridine-6-carboxylic acid] | 242.9 | 0.608
7 | O=C(O)c1cc(N2CCC3(C2)OCCO3)c2c(C3CCC3)nn(-c3ccccc3)c2n1 [compound 713, 3-cyclobutyl-4-(1,4-dioxa-7-azaspiro[4.4]nonan-7-yl)-1-phenyl-1H-pyrazolo[3,4-b]pyridine-6-carboxylic acid] | 243.5 | 0.659
8 | O=C(O)c1cc(N2CCN(CCOCCO)CC2)c2c(C3CCC3)nn(-c3ccccc3)c2n1 [compound 714, 3-cyclobutyl-4-{4-[2-(2-hydroxyethoxy)ethyl]piperazin-1-yl}-1-phenyl-1H-pyrazolo[3,4-b]pyridine-6-carboxylic acid] | 212.5 | 1.41
9 | O=C(O)c1cc(N2CC[C@@H](N3CCCCC3)C2)c2c(C3CCC3)nn(-c3ccccc3)c2n1 [compound 715, 3-cyclobutyl-1-phenyl-4-[(3R)-3-(piperidin-1-yl)pyrrolidin-1-yl]-1H-pyrazolo[3,4-b]pyridine-6-carboxylic acid] | 261.4 | 1.27
10 | N#CC1COC2(C1)CN(c1cc(C(=O)O)nc3c1c(C1CCC1)nn3-c1ccccc1)C2 (stereo not shown) [compound 716, 4-(7-cyano-5-oxa-2-azaspiro[3.4]octan-2-yl)-3-cyclobutyl-1-phenyl-1H-pyrazolo[3,4-b]pyridine-6-carboxylic acid] | 282.9 | 0.772
11 | CN1CCCN(C(=O)CCN2CCN(c3cc(C(=O)O)nc4c3c(C3CCC3)nn4-c3ccccc3)CC2)CC1 [compound 717, 3-cyclobutyl-4-{4-[3-(4-methyl-1,4-diazepan-1-yl)-3-oxopropyl]piperazin-1-yl}-1-phenyl-1H-pyrazolo[3,4-b]pyridine-6-carboxylic acid] | 124.6 | 5
12 | CN(C)C(=O)C1(N2CCCC2=O)CCN(c2cc(C(=O)O)nc3c2c(C2CCC2)nn3-c2ccccc2)CC1 [compound 718, 3-cyclobutyl-4-[4-(dimethylcarbamoyl)-4-(2-oxopyrrolidin-1-yl)piperidin-1-yl]-1-phenyl-1H-pyrazolo[3,4-b]pyridine-6-carboxylic acid] | 209.8 | 1.67
13 | O=C(O)c1cc(N2CC3(CCCOC3)C2)c2c(C3CCC3)nn(-c3ccccc3)c2n1 [compound 720, 3-cyclobutyl-4-(6-oxa-2-azaspiro[3.5]nonan-2-yl)-1-phenyl-1H-pyrazolo[3,4-b]pyridine-6-carboxylic acid] | 263.1 | 0.356
14 | O=C(O)c1cc(N2CCN3CCC[C@@H]3C2)c2c(C3CCC3)nn(-c3ccccc3)c2n1 [compound 721, 3-cyclobutyl-4-[(8aR)-hexahydropyrrolo[1,2-a]pyrazin-2(1H)-yl]-1-phenyl-1H-pyrazolo[3,4-b]pyridine-6-carboxylic acid] | 302.1 | 0.51
15 | O=C(O)c1cc(N2CCN(CCO)CC2)c2c(C3CCC3)nn(-c3ccccc3)c2n1 [compound 722, 3-cyclobutyl-4-[4-(2-hydroxyethyl)piperazin-1-yl]-1-phenyl-1H-pyrazolo[3,4-b]pyridine-6-carboxylic acid] | 247 | 1.67
16 | CN1CCOC(C2CN(c3cc(C(=O)O)nc4c3c(C3CCC3)nn4-c3ccccc3)C2)C1 (stereo not shown) [compound 723, 3-cyclobutyl-4-[3-(4-methylmorpholin-2-yl)azetidin-1-yl]-1-phenyl-1H-pyrazolo[3,4-b]pyridine-6-carboxylic acid] | 344.8 | 1.05
17 | CN(C1CCN(C2CN(c3cc(C(=O)O)nc4c3c(C3CCC3)nn4-c3ccccc3)C2)CC1)C1COC1 [compound 724, 3-cyclobutyl-4-(3-{4-[methyl(oxetan-3-yl)amino]piperidin-1-yl}azetidin-1-yl)-1-phenyl-1H-pyrazolo[3,4-b]pyridine-6-carboxylic acid] | 208.5 | 1.67
18 | O=C(O)c1cc(N2CC(N3CCC(N4CCOCC4)CC3)C2)c2c(C3CCC3)nn(-c3ccccc3)c2n1 [compound 725, 3-cyclobutyl-4-{3-[4-(morpholin-4-yl)piperidin-1-yl]azetidin-1-yl}-1-phenyl-1H-pyrazolo[3,4-b]pyridine-6-carboxylic acid] | 173.2 | 0.869
19 | CCOCCN1CCC(N2CCN(c3cc(C(=O)O)nc4c3c(C3CCC3)nn4-c3ccccc3)CC2)CC1 [compound 726, 3-cyclobutyl-4-{4-[1-(2-ethoxyethyl)piperidin-4-yl]piperazin-1-yl}-1-phenyl-1H-pyrazolo[3,4-b]pyridine-6-carboxylic acid] | 409.6 | 0.311
20 | CC(O)CN1CCC(N2CCN(c3cc(C(=O)O)nc4c3c(C3CCC3)nn4-c3ccccc3)CC2)CC1 (stereo not shown) [compound 727, 3-cyclobutyl-4-{4-[1-(2-hydroxypropyl)piperidin-4-yl]piperazin-1-yl}-1-phenyl-1H-pyrazolo[3,4-b]pyridine-6-carboxylic acid] | 348 | 1.67
21 | CN(C)CCCN1CCN(c2cc(C(=O)O)nc3c2c(C2CCC2)nn3-c2ccccc2)CC1 [compound 728, 3-cyclobutyl-4-{4-[3-(dimethylamino)propyl]piperazin-1-yl}-1-phenyl-1H-pyrazolo[3,4-b]pyridine-6-carboxylic acid] | 221.6 | 1.67
22 | CCOCCN1CCN(C2CCN(c3cc(C(=O)O)nc4c3c(C3CCC3)nn4-c3ccccc3)CC2)CC1 [compound 729, 3-cyclobutyl-4-{4-[4-(2-ethoxyethyl)piperazin-1-yl]piperidin-1-yl}-1-phenyl-1H-pyrazolo[3,4-b]pyridine-6-carboxylic acid] | 530.4 | 1.67
23 | O=C(O)c1cc(N2CCC(OCCN3CCCCC3)CC2)c2c(C3CCC3)nn(-c3ccccc3)c2n1 [compound 730, 3-cyclobutyl-1-phenyl-4-{4-[2-(piperidin-1-yl)ethoxy]piperidin-1-yl}-1H-pyrazolo[3,4-b]pyridine-6-carboxylic acid] | 418.7 | 0.0715

Source: patent publication US9796711B2, “Substituted pyrazolo[3,4-b]pyridin-6-carboxylic acids and method of use” (AbbVie S.àr.l., priority 2015, dated 2017)
